Consider 23 compounds from patent US20240166652A1, “MODULATORS OF THE INTEGRATED STRESS PATHWAY” (Calico Life Sciences LLC, priority 2017, published 2024).

For the test, the system named is ATF4 luciferase reporter in HEK293T cells. Nature of the test: ATF4-Luc assay (ATF4 luciferase reporter, tunicamycin-treated HEK293T cells). The format is cell-based, human. Particulars: Homo sapiens, HEK-293T; HEK293T cells carrying the ATF4 luciferase reporter, 1 μg/mL tunicamycin, 7 hours.
For the compound `Cc1ccc(OC(=O)NC23CC(NC(=O)COc4ccc(Cl)c(F)c4)(C2)C3)cc1` [Compound 435, 4-methylphenyl {3-[2-(4-chloro-3-fluorophenoxy)acetamido]bicyclo[1.1.1]pentan-1-yl}carbamate], the concentration giving a half-maximal response (EC50) lay in the range of 250 to 500 nM.
Regarding `O=C(COc1ccc(Cl)c(F)c1)NC12CCC(NC(=O)Oc3ccc(Cl)cc3)(CC1)C(O)C2` (centres unmarked) [Compound 436, 4-chlorophenyl {4-[2-(4-chloro-3-fluorophenoxy)acetamido]-2-hydroxybicyclo[2.2.2]octan-1-yl}carbamate], the EC50 lay in the range of 50 to 250 nM.
For `O=C(COc1ccc(Cl)cc1)NC12CCC(NC(=O)COc3ccc(Cl)c(F)c3)(CC1)[C@@H](O)C2` [Compound 437, 2-(4-chloro-3-fluorophenoxy)-N-{(2S)-4-[2-(4-chlorophenoxy)acetamido]-2-hydroxybicyclo[2.2.2]octan-1-yl}acetamide] the value was under 10 nM.
`O=C(COc1ccc(Cl)c(Cl)c1)NC12CCC(NC(=O)COc3ccc(Cl)c(F)c3)(CC1)[C@@H](O)C2` [Compound 438, 2-(4-chloro-3-fluorophenoxy)-N-{(2S)-4-[2-(3,4-dichlorophenoxy)acetamido]-2-hydroxybicyclo[2.2.2]octan-1-yl}acetamide]: the EC50 is under 10 nM.
For `Cc1cc(OC(C)(C)C(=O)NC23CCC(NC(=O)COc4ccc(Cl)c(F)c4)(CC2)C[C@@H]3O)ccc1Cl` [Compound 439, N-{(2S)-4-[2-(4-chloro-3-fluorophenoxy)acetamido]-2-hydroxybicyclo[2.2.2]octan-1-yl}-2-(4-chloro-3-methylphenoxy)-2-methylpropanamide] the value was under 10 nM.
For `O=C(COc1ccc(Cl)c(F)c1)NC12CCC(NC(=O)COc3ccc(Cl)c(F)c3)(CC1)C2` [Compound 440, N,N′-(bicyclo[2.2.1]heptane-1,4-diyl)bis[2-(4-chloro-3-fluorophenoxy)acetamide]] the value was under 10 nM; for `NC(=O)C1CC2(NC(=O)COc3ccc(Cl)c(F)c3)CCC1(NC(=O)COc1ccc(Cl)c(F)c1)CC2` (centres unmarked) [Compound 441, 1,4-bis[2-(4-chloro-3-fluorophenoxy)acetamido]bicyclo[2.2.2]octane-2-carboxamide], 10 to 50 nM; for `Cc1ccc(OCC(=O)NC23CCC(NC(=O)COc4ccc(C)cc4)(CC2)[C@@H](O)C3)cc1` [Compound 442, N,N′-[(2S)-2-hydroxybicyclo[2.2.2]octane-1,4-diyl]bis[2-(4-methylphenoxy)acetamide]], under 10 nM.
For `Cc1ccc(OCC(=O)NC23CCC(NC(=O)COc4ccc(C)c(C)c4)(CC2)[C@@H](O)C3)cc1C` [Compound 443, N,N′-[(2S)-2-hydroxybicyclo[2.2.2]octane-1,4-diyl]bis[2-(3,4-dimethylphenoxy)acetamide]] the value was under 10 nM; for `CN(C(=O)COc1ccc(Cl)c(F)c1)C12CCC(NC(=O)COc3ccc(Cl)c(F)c3)(CC1)[C@@H](O)C2` [Compound 444, 2-(4-chloro-3-fluorophenoxy)-N-{(3S)-4-[2-(4-chloro-3-fluorophenoxy)acetamido]-3-hydroxybicyclo[2.2.2]octan-1-yl}-N-methylacetamide], 10 to 50 nM.
Take `CC(=O)O[C@H]1CC2(NC(=O)COc3ccc(Cl)c(F)c3)CCC1(NC(=O)COc1ccc(Cl)c(F)c1)CC2` [Compound 445, (2S)-1,4-bis[2-(4-chloro-3-fluorophenoxy)acetamido]bicyclo[2.2.2]octan-2-yl acetate]: the EC50 was under 10 nM.
The value for `O=C(COc1ccc(Cl)c(F)c1)NC12CC(NC(=O)Cc3ccccc3)(C1)C2` [Compound 446, 2-(4-chloro-3-fluorophenoxy)-N-[3-(2-phenylacetamido)bicyclo[1.1.1]pentan-1-yl]acetamide] was over 2000 nM; that for `O=C(COc1ccc(Cl)c(Cl)c1)NC12CC(NC(=O)Cc3ccccn3)(C1)C2` [Compound 447, 2-(3,4-dichlorophenoxy)-N-{3-[2-(pyridin-2-yl)acetamido]bicyclo[1.1.1]pentan-1-yl}acetamide] was over 2000 nM.
On to `O=C(COc1ccc(Cl)c(F)c1)NC12CC(NC(=O)Cc3ccccn3)(C1)C2` [Compound 448, 2-(4-chloro-3-fluorophenoxy)-N-{3-[2-(pyridin-2-yl)acetamido]bicyclo[1.1.1]pentan-1-yl}acetamide], for which the 50% effective concentration (EC50) was over 2000 nM.
For `CC(=O)O[C@@H]1CC2(NCCOc3ccc(Cl)c(F)c3)CCC1(NC(=O)COc1ccc(Cl)c(F)c1)CC2` [Compound 450, (2R)-1-[2-(4-chloro-3-fluorophenoxy)acetamido]-4-{[2-(4-chloro-3-fluorophenoxy)ethyl]amino}bicyclo[2.2.2]octan-2-yl acetate] the value was 10 to 50 nM; for `O=C(COc1ccc(Cl)c(Cl)c1)NC12CC(NC(=O)NCc3cccc(F)c3)(C1)C2` [Compound 451, 2-(3,4-dichlorophenoxy)-N-[3-({[(3-fluorophenyl)methyl]carbamoyl}amino)bicyclo[1.1.1]pentan-1-yl]acetamide], over 2000 nM; for `O=C(COc1ccc(Cl)c(F)c1)NC12CCC(NC(=O)COc3ccc(Cl)c(Cl)c3)(CC1)[C@@H](O)C2` [Compound 452, 2-(4-chloro-3-fluorophenoxy)-N-{(3S)-4-[2-(3,4-dichlorophenoxy)acetamido]-3-hydroxybicyclo[2.2.2]octan-1-yl}acetamide], under 10 nM.
Take `CC(C)(Oc1ccc(Cl)cc1)C(=O)NC12CCC(NC(=O)COc3ccc(Cl)c(F)c3)(CC1)C[C@@H]2O` [Compound 453, N-{(2S)-4-[2-(4-chloro-3-fluorophenoxy)acetamido]-2-hydroxybicyclo[2.2.2]octan-1-yl}-2-(4-chlorophenoxy)-2-methylpropanamide]: the EC50 lay within 10 to 50 nM.
As for `O=C(COc1ccc(Cl)c(F)c1)NC12CCC(NC(=O)COc3ccc(Cl)cc3)(CC1)[C@@H](O)C2` [Compound 454, 2-(4-chloro-3-fluorophenoxy)-N-{(3S)-4-[2-(4-chlorophenoxy)acetamido]-3-hydroxybicyclo[2.2.2]octan-1-yl}acetamide], the EC50 is under 10 nM.
`COc1ccc(OC)c(CCC(=O)NC23CC(NC(=O)COc4ccc(Cl)c(F)c4)(C2)C3)c1` [Compound 455, N-{3-[2-(4-chloro-3-fluorophenoxy)acetamido]bicyclo[1.1.1]pentan-1-yl}-3-(2,5-dimethoxyphenyl)propanamide]: the concentration giving a half-maximal response (EC50) was over 2000 nM.
`Cc1ccc(OCC(=O)NC23CC(NC(=O)COc4ccc(Cl)c(F)c4)(C2)C3)cc1C` [Compound 456, 2-(4-chloro-3-fluorophenoxy)-N-{3-[2-(3,4-dimethylphenoxy)acetamido]bicyclo[1.1.1]pentan-1-yl}acetamide]: the 50% effective concentration (EC50) was under 10 nM.
The value for `O=C(COc1ccc(Cl)c(F)c1)NC12CC(NC(=O)Cc3cccc(C(F)(F)F)c3)(C1)C2` [Compound 457, 2-(4-chloro-3-fluorophenoxy)-N-(3-{2-[3-(trifluoromethyl)phenyl]acetamido}bicyclo[1.1.1]pentan-1-yl)acetamide] was over 2000 nM.
The value for `O=C(COc1ccc(Cl)c(F)c1)NC12CC(NC(=O)Cc3cccnc3)(C1)C2` [Compound 458, 2-(4-chloro-3-fluorophenoxy)-N-{3-[2-(pyridin-3-yl)acetamido]bicyclo[1.1.1]pentan-1-yl}acetamide] was over 2000 nM.
